The results in this text go back to the supplement of paper PMC6045584.

Compound in one assay: CCCS(=O)(=O)Nc1ccc(F)c(C(=O)c2c[nH]c3ncc(Cl)cc23)c1F [PLX-4720]
The assay is described as follows: surviving fraction relative to DMSO-only wells; higher = less growth inhibition. Conditions: exposure time: 5 days. A digest of the protocol: (§1)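 After seeding at 250–500 cells per well in 384-well plates and a 24-hour wait, log-phase tumour cell lines were exposed without interruption for five days to inhibitors at 0.5, 1, 5, 10, 50, 100, 500 and 1000 nM. CellTiter-Glo luminescence was recorded after 10 minutes at room temperature. Viability is reported as surviving fraction, the luminescence normalised to the median of DMSO-only wells.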

Compound in a further assay: O=C(O)CC[C@H]1CC[C@@](c2cc(F)ccc2F)(S(=O)(=O)c2ccc(Cl)cc2)CC1 [MK0752]
The assay is described as above. Particulars: exposure time: 5 days. A digest of the protocol: as §1

± gives the standard deviation of the averaged measurements.

In the case of CADOES1 SOFT TISSUE, the surviving fraction in the assay with PLX-4720 (0.5 nM) is 0.944 ± 0.025; in the assay with PLX-4720 (1 nM), 0.935 ± 0.063; with PLX-4720 (5 nM) it was 0.915 ± 0.051; in the assay with PLX-4720 (10 nM) it was 0.933 ± 0.075; in the assay with PLX-4720 (50 nM), 0.999 ± 0.14; with PLX-4720 (100 nM), 0.869 ± 0.034. Further, the surviving fraction came to 0.939 ± 0.075 in the assay with PLX-4720 (500 nM); 1 ± 0.049 with PLX-4720 (1000 nM); 0.976 ± 0.09 with MK0752 (0.5 nM); 1.02 ± 0.13 with MK0752 (1 nM); 0.994 ± 0.073 with MK0752 (5 nM); 0.953 ± 0.054 with MK0752 (10 nM). In addition, the surviving fraction amounted to 1.02 ± 0.14 in the assay with MK0752 (50 nM), 0.849 ± 0.041 with MK0752 (100 nM), 0.801 ± 0.086 with MK0752 (500 nM) and 0.931 ± 0.11 with MK0752 (1000 nM).

Take HT1080 SOFT TISSUE: the surviving fraction came to 0.981 ± 0.049 with PLX-4720 (0.5 nM); 0.994 ± 0.073 in the assay with PLX-4720 (1 nM); 0.988 ± 0.025 with PLX-4720 (5 nM); 0.989 ± 0.031 in the assay with PLX-4720 (10 nM); 1.01 ± 0.038 with PLX-4720 (50 nM); 0.979 ± 0.031 with PLX-4720 (100 nM). For the same test system, the surviving fraction with PLX-4720 (500 nM) was 0.934 ± 0.042; with PLX-4720 (1000 nM), 0.885 ± 0.033; in the assay with MK0752 (0.5 nM), 0.997 ± 0.018; with MK0752 (1 nM), 1.02 ± 0.034; with MK0752 (5 nM), 1.04 ± 0.026; with MK0752 (10 nM), 1 ± 0.051. Also, the surviving fraction is 0.948 ± 0.019 in the assay with MK0752 (50 nM), 1.02 ± 0.04 in the assay with MK0752 (100 nM), 0.984 ± 0.0089 in the assay with MK0752 (500 nM) and 0.989 ± 0.029 with MK0752 (1000 nM).

In the case of SKBR3 BREAST, the surviving fraction in the assay with PLX-4720 (0.5 nM) is 0.838 ± 0.027; with PLX-4720 (1 nM), 0.81 ± 0.098; with PLX-4720 (5 nM), 0.819 ± 0.14; with PLX-4720 (10 nM) it was 0.813 ± 0.15; with PLX-4720 (50 nM), 1.05 ± 0.12; in the assay with PLX-4720 (100 nM), 1.01 ± 0.15. The surviving fraction with PLX-4720 (500 nM) turned out to be 0.986 ± 0.17; with PLX-4720 (1000 nM), 0.892 ± 0.14; with MK0752 (0.5 nM), 0.854 ± 0.14; in the assay with MK0752 (1 nM), 1.05 ± 0.18; with MK0752 (5 nM), 1.02 ± 0.06; in the assay with MK0752 (10 nM), 0.917 ± 0.086. The surviving fraction in the assay with MK0752 (50 nM) came out at 1.11 ± 0.092; with MK0752 (100 nM), 1.08 ± 0.05; in the assay with MK0752 (500 nM) it was 0.961 ± 0.11; in the assay with MK0752 (1000 nM), 1.06 ± 0.11.

On to H23 LUNG, for which the surviving fraction was determined as 0.873 ± 0.037 with PLX-4720 (0.5 nM); 0.943 ± 0.057 in the assay with PLX-4720 (1 nM); 0.93 ± 0.055 in the assay with PLX-4720 (5 nM); 0.968 ± 0.068 with PLX-4720 (10 nM); 0.971 ± 0.028 in the assay with PLX-4720 (50 nM); 1.06 ± 0.018 with PLX-4720 (100 nM). For the same test system, the surviving fraction stood at 1.06 ± 0.044 with PLX-4720 (500 nM); 1.17 ± 0.014 with PLX-4720 (1000 nM); 1.064 ± 0.004 with MK0752 (0.5 nM); 1.11 ± 0.053 in the assay with MK0752 (1 nM); 1.1 ± 0.061 with MK0752 (5 nM); 1.07 ± 0.063 in the assay with MK0752 (10 nM). In addition, the surviving fraction with MK0752 (50 nM) was determined as 1.104 ± 0.0052; with MK0752 (100 nM), 1.17 ± 0.1; with MK0752 (500 nM), 1.103 ± 0.0038; with MK0752 (1000 nM) it was 1.13 ± 0.058.

Consider SJSA1 BONE, for which the surviving fraction in the assay with PLX-4720 (0.5 nM) is 0.89 ± 0.025; in the assay with PLX-4720 (1 nM) it was 0.914 ± 0.026; in the assay with PLX-4720 (5 nM), 0.904 ± 0.028; in the assay with PLX-4720 (10 nM) it was 0.948 ± 0.025; with PLX-4720 (50 nM), 1.03 ± 0.033; with PLX-4720 (100 nM) it was 1.03 ± 0.062. Also, the surviving fraction turned out to be 0.998 ± 0.059 with PLX-4720 (500 nM); 0.955 ± 0.074 in the assay with PLX-4720 (1000 nM); 1 ± 0.03 with MK0752 (0.5 nM); 1.09 ± 0.044 in the assay with MK0752 (1 nM); 1.02 ± 0.089 in the assay with MK0752 (5 nM); 1.09 ± 0.06 with MK0752 (10 nM). For the same test system, the surviving fraction with MK0752 (50 nM) came out at 1.08 ± 0.036; with MK0752 (100 nM), 1.14 ± 0.02; with MK0752 (500 nM), 1.03 ± 0.027; with MK0752 (1000 nM) it was 1.07 ± 0.044.

Regarding 22RV1 PROSTATE, the surviving fraction with PLX-4720 (0.5 nM) was 1 ± 0.011; with PLX-4720 (1 nM) it was 0.966 ± 0.076; with PLX-4720 (5 nM), 0.971 ± 0.032; with PLX-4720 (10 nM) it was 0.958 ± 0.036; in the assay with PLX-4720 (50 nM) it was 0.936 ± 0.04; in the assay with PLX-4720 (100 nM), 0.929 ± 0.053. Moreover, the surviving fraction amounted to 0.825 ± 0.095 in the assay with PLX-4720 (500 nM); 0.872 ± 0.049 with PLX-4720 (1000 nM); 1.08 ± 0.069 in the assay with MK0752 (0.5 nM); 1.1 ± 0.012 with MK0752 (1 nM); 1.09 ± 0.021 with MK0752 (5 nM); 1.04 ± 0.058 in the assay with MK0752 (10 nM). Also, the surviving fraction was found to be 1.07 ± 0.092 with MK0752 (50 nM), 1.11 ± 0.07 in the assay with MK0752 (100 nM), 1.09 ± 0.044 with MK0752 (500 nM) and 1.08 ± 0.026 in the assay with MK0752 (1000 nM).

As to HS578T BREAST, the surviving fraction with PLX-4720 (0.5 nM) was found to be 0.925 ± 0.054; in the assay with PLX-4720 (1 nM), 0.912 ± 0.021; in the assay with PLX-4720 (5 nM) it was 0.908 ± 0.1; with PLX-4720 (10 nM) it was 0.809 ± 0.16; in the assay with PLX-4720 (50 nM), 0.978 ± 0.13; in the assay with PLX-4720 (100 nM) it was 0.92 ± 0.055. Further, the surviving fraction came out at 0.943 ± 0.058 in the assay with PLX-4720 (500 nM); 0.789 ± 0.11 in the assay with PLX-4720 (1000 nM); 1.02 ± 0.061 with MK0752 (0.5 nM); 0.87 ± 0.15 with MK0752 (1 nM); 0.883 ± 0.11 in the assay with MK0752 (5 nM); 1.01 ± 0.11 with MK0752 (10 nM). Moreover, the surviving fraction with MK0752 (50 nM) was 0.946 ± 0.046; with MK0752 (100 nM), 0.9 ± 0.056; in the assay with MK0752 (500 nM) it was 0.833 ± 0.11; in the assay with MK0752 (1000 nM), 0.936 ± 0.12.

On to HOSMNG BONE, for which the surviving fraction with PLX-4720 (0.5 nM) is 0.959 ± 0.026; in the assay with PLX-4720 (1 nM), 0.962 ± 0.025; in the assay with PLX-4720 (5 nM), 1 ± 0.061; in the assay with PLX-4720 (10 nM), 0.985 ± 0.041; with PLX-4720 (50 nM) it was 0.991 ± 0.16; with PLX-4720 (100 nM), 1.04 ± 0.079. Besides, the surviving fraction in the assay with PLX-4720 (500 nM) was 1 ± 0.12; with PLX-4720 (1000 nM), 1.03 ± 0.092; in the assay with MK0752 (0.5 nM), 0.936 ± 0.023; with MK0752 (1 nM), 1.02 ± 0.037; in the assay with MK0752 (5 nM), 0.959 ± 0.052; with MK0752 (10 nM), 0.981 ± 0.046. For the same test system, the surviving fraction in the assay with MK0752 (50 nM) was 1.05 ± 0.028; in the assay with MK0752 (100 nM) it was 1.05 ± 0.029; in the assay with MK0752 (500 nM), 1.06 ± 0.061; with MK0752 (1000 nM), 1.04 ± 0.024.

In the case of SIHA CERVIX, the surviving fraction was 0.908 ± 0.016 with PLX-4720 (0.5 nM); 0.877 ± 0.034 with PLX-4720 (1 nM); 0.909 ± 0.041 with PLX-4720 (5 nM); 0.995 ± 0.034 with PLX-4720 (10 nM); 0.993 ± 0.022 with PLX-4720 (50 nM); 1.07 ± 0.068 with PLX-4720 (100 nM). The surviving fraction in the assay with PLX-4720 (500 nM) was 1.06 ± 0.041; in the assay with PLX-4720 (1000 nM), 1.09 ± 0.055; with MK0752 (0.5 nM) it was 1.1 ± 0.046; with MK0752 (1 nM), 1.15 ± 0.024; with MK0752 (5 nM) it was 1.12 ± 0.044; with MK0752 (10 nM), 1.15 ± 0.053. Also, the surviving fraction in the assay with MK0752 (50 nM) is 1.15 ± 0.025; with MK0752 (100 nM) it was 1.21 ± 0.085; with MK0752 (500 nM), 1.16 ± 0.11; with MK0752 (1000 nM), 1.14 ± 0.051.
